Data taken from paper PMC7796031, “Studies of Coumarin Derivatives for Constitutive Androstane Receptor (CAR) Activation” (Molecules, 2020).

What was measured:
[1] = Preliminary pharmacokinetic study, plasma concentration by RP-HPLC-fluorescence; type: in vivo, C57BL/6 mice; conditions: for desired plasma concentration (10 μM) reached: dose 0.5 mg/mouse, desired ~2 μg/mL for scoparone, ~3 μg/mL for 50
Text: S23 Preliminary pharmacokinetic studies of scoparone and 6,7-diprenoxycoumarin
Table S1 Blood concentration of scoparone. mouse Dose given (mg) Body weight (g) Time (min) Cal. Conc. (µg/ml) […]
Table S2 Blood concentration of 6,7-diprenoxycoumarin.
Adopt previous study on fraxetin (unpublished result) , a coumarin compound, RP -HPLC -fluorescence method (excitation 380 nm and emission 480 nm ) was applied on analysis of the concentration of scoparone and 6,7 -diprenoxycoumarin. […]
without interference with endogenous plasma constituents. […]
retention time of approximately 7.51 in mouse plasma.
0.01 to 10.00 µg/ml for scoparone and 0.025 to 6.25 µg/ml for 6,7 -diprenoxycoumarin. The relativ e error and coefficient of variance are all below 15 %. The LOQ were 0.01 and 0.005 µg/ml for scoparone and 6,7 - diprenoxycoumarin. Linearity over the investigated concentration was obtained.
After method validation, C57BL/6 mice were given scoparone (i.p.) or 6,7 -diprenoxycoumarin and plasma […]
In pharmacological assay, the desired scoparone […]
the amount of drug increased to 0.5 mg/mice. Thus, the CAR activating effect may not be seen in vivo, which can account for no blood sugar lowering effects of 6,7-diprenoxycoumarin in vivo.
Acetonitrile HPLC-grade (LiChrosolv® ) were purchased from Sigma-Aldrich Chemie GmbH. Deionized water was purified on a Milli-Q system. Scoparone and 6,7-diprenoxycoumarin were synthesized from our […]
lab and purity was > 95 % from HPLC-UV method.
Instrumentation and Chromatographic Condition
Hitachi L-7100 liquid chromatography system (Hitachi, Japan) comprised a Hitachi D-7000 interface, a Hitachi L-7200 auto sampler, a Hitachi L-7400 UV detector and a Hitachi L-2480 FL detector. The HPLC colum consisted of a Thermo Hypurity® RP-18 column (200 × 4.6 mm, 5 µm) connected to a Hichrom ODS guard column. The isocratic elution was applied for scoparone (ACN-H2O = 3:7) and 6,7-diprenoxycoumarin (ACN-H2O = 7:3). The flow rate was set at 1.0 ml/min. The detection fluorescence was set at excitation 380 nm and emission 480 nm. A volume of 20 µL of sample was subjected to HPLC for […]
Animals and Sample Preparation
Eight-week old male or female C57/BL6 mice were acquired from BioLASCO Taiwan Co., Ltd. Experimental animals were allowed to acclimate to the controlled photoperiod (a cycle of 12-hr light/ 12-hr dark), humidity (40-60% relative humidity) and temperature (22 ± 2 °C) with ad libitum supply of standard chow diets and drinking water for one week prior to the experimental treatment in accordance with the Guide for the Care and Use of Laboratory Animals (Institute of Laboratory Animal Resources Commission on Life Sciences, 2011). Acclimated animals were randomly separated into two groups: scoparone-treated or 6,7-diprenoxycoumarin-treated. Mice were administered indicated dose i.p. All mice were anesthetized with Zoetil (10 mg/ml, 0.05 ml/10 gmbw, i.p.) before blood sampling. The blood samples (approximately 300 µL) were […]
centrifuging at 10,000 rpm for 10 min, the plasma samples were obtained. The plasma (50 µL) was mixed with 150 µL ACN, vortexed, and centrifuged for […], 10 mins and at 4 °C. The supernatant was obtained and 20 µL of sample was subjected to HPLC analysis.
Institute of Laboratory Animal Resources Commission on Life Sciences, National Research Council. In Guide for the Care and Use of Laboratory Animals, 8th ed.; National Academy Press: Washington, DC, 2011.

[2] = system: MRP2; assay: Protein expression of MRP2 (western blot); type: cell-based, human
Experimental: Figure 7 The protein expressions of MRP2 after 6,7-diprenoxycoumarin (50) treatment. Hep3B cell (1 × 10^6) were treated with 50 (5, 10, 20 and 40 μM) for 24 h. Treated cell lysates were prepared as described in the Methods section and the expression of MRP2 was analyzed by western blot.
1 × 10^6 cells were seeded in a 10 cm plate, incubated at 37 °C for overnight and treated with various concentrations of compounds for the indicated times. After incubation, the culture medium was removed and washed twice with 2 mL ice-cold 1× PBS. Three hundred μL of protein lysis buffer (150 mM NaCl, 50 mM Tris-HCl (pH 7.4), 1% SDS, 1% Triton X-100, 1 mM PMSF) was added into each plate, scraped with a rubber policeman, collected into a premarked microtube and the incubated in ice for 1 h, sonicated by Ultrasonic Cell Disruptor for three time at 5 s each. The cell lysated was cleared by centrifugation at 12,000× g for 15 min at 4 °C. Supernatants were transferred into a fresh marked microtube and stored at −20 °C for future use.
Protein concentration of each sample was determined using a BCA Protein Assay Kit (Pirece®, Thermo Scientific). Different percentages of SDS-PAGE gels were prepared according to the molecular size of proteins of interest. After complete polymerization of stacking gels, each sample with equal amount of total protein was separated in polyacrylamide gels (stacking gel: 50 v, 60 min; separating gel: 100 v, 60 min). After separating, wet-transfer method was utilized to transfer proteins onto the PVDF membrane. The gels were assembled in the transfer sandwich and put in a transfer tank filled with transfer buffer (25 mM glycine, 0.15% ethanolamine, 20% methanol). The electro-transfer was performed at the voltage of 100 volt for 80 min at 4 °C. After transfer, PVDF-membrane was blocked with 5% BSA in 1× TBS-Tween at room temperature for 1 h. Membrane was washed with 10 mL 1× TBS-Tween three times and incubated with primary antibodies overnight at 4 °C with gentle agitation. […] The emitted fluorescence from the membrane was caught on a LAS-4000 biomolecule imager (FUJI.).

Blood concentration, Cal. Conc. ([1]; Table S1, Study 1 mouse 1, dose given 0.2 mg i.p., 10 min) | Blood concentration, Cal. Conc. ([1]; Table S1, Study 1 mouse 2, dose given 0.2 mg i.p., 60 min) | Blood concentration, Cal. Conc. ([1]; Table S1, Study 1 mouse 3, dose given 0.2 mg i.p., 315 min) | Blood concentration, Cal. Conc. ([1]; Table S1, Study 2 mouse 3, dose given 0.5 mg i.p., 320 min) | desired plasma concentration (10 μM) reached [1] | Blood concentration, Cal. Conc. ([1]; Table S2, Study 1 mouse 1, dose given 0.36 mg i.p., 10 min) | Blood concentration, Cal. Conc. ([1]; Table S2, Study 1 mouse 2, dose given 0.36 mg i.p., 60 min) | Blood concentration, Cal. Conc. ([1]; Table S2, Study 1 mouse 3, dose given 0.36 mg i.p., 110 min) | Blood concentration, Cal. Conc. ([1]; Table S2, Study 1 mouse 4, dose given 0.36 mg i.p., 360 min) | Blood concentration, Cal. Conc. ([1]; Table S2, Study 2 mouse 1, dose given 0.5 mg i.p., 11 min) | Blood concentration, Cal. Conc. ([1]; Table S2, Study 2 mouse 2, dose given 0.5 mg i.p., 60 min) | Blood concentration, Cal. Conc. ([1]; Table S2, Study 2 mouse 3, dose given 0.5 mg i.p., 318 min) | Compound | protein expression of MRP2 (CAR downstream gene) ([2]; Figure 2, after scoparone or CITCO treatment) | protein expression level of MRP2 ([2]; Hep3B, 5, 10, 20 and 40 μM, 24 h)
0.41 µg/mL | 0.26 µg/mL | 0.04 µg/mL | 0.04 µg/mL | can be achieved |  |  |  |  |  |  |  | COc1cc2ccc(=O)oc2cc1OC [Compound 39, scoparone] | upregulated | 
 |  |  |  | cannot be obtained | 0.56 µg/mL | 0.08 µg/mL | 0.07 µg/mL | 0.04 µg/mL | 0.31 µg/mL | 0.12 µg/mL | 0.027 µg/mL | CC(C)=CCOc1cc2ccc(=O)oc2cc1OCC=C(C)C [Compound 50, 6,7-diprenoxycoumarin] |  | enhanced
